Results from ChEMBL document CHEMBL1127535, “Molecular similarity, quantitative chirality, and QSAR for chiral drugs” (J Med Chem, 1994).

Key:
[1] = target: D(2) dopamine receptor (Rattus norvegicus) (UniProt P61169); test: Displacement of spiperone from dopamine receptor D2 of rat brain membrane
[2] = target: Sigma non-opioid intracellular receptor 1 (Rattus norvegicus) (UniProt Q9R0C9); test: Displacement of (+)-3PPP from sigma receptor of rat brain membrane
Chain of Sigma non-opioid intracellular receptor 1 (Rattus norvegicus) (Q9R0C9 whole entry): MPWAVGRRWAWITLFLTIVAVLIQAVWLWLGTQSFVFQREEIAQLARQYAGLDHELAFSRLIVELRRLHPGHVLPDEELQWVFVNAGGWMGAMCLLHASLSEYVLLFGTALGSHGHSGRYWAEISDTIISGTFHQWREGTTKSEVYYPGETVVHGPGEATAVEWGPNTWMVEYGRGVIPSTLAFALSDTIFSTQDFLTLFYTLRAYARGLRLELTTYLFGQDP

Chain of D(2) dopamine receptor (Rattus norvegicus) (P61169 whole entry): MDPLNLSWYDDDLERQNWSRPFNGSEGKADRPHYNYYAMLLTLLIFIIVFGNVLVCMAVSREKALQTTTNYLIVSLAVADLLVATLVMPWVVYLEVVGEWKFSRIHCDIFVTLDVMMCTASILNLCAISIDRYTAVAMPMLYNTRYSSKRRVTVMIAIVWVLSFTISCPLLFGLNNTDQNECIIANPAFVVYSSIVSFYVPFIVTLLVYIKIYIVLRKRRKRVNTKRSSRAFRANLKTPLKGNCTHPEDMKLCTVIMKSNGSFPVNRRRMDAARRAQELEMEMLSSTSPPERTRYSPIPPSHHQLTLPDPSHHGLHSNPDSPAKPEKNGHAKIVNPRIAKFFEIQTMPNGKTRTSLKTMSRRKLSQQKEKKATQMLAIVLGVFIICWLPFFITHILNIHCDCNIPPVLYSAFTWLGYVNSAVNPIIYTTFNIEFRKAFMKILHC

Row | SMILES | Log IC50 [1] [µM] | Log IC50 [2] [µM]
1 | Oc1cccc([C@H]2CCCNC2)c1 | 0.36 | 0.66
2 | Oc1cccc([C@@H]2CCCNC2)c1 | 0.24 | 1.19
3 | CCc1ccc(N2CCC[C@H](c3cccc(O)c3)C2)cc1 | 0.09 | 2.1
4 | CCCN1CCC[C@H](c2cccc(O)c2)C1 |  | 1.52
5 | CCCN1CCC[C@@H](c2cccc(O)c2)C1 |  | 0.81
6 | CCCCN1CCC[C@H](c2cccc(O)c2)C1 | 0.43 | 2.05
7 | CCc1ccc(N2CCC[C@@H](c3cccc(O)c3)C2)cc1 | 1.36 | 1.8
8 | CC(C)N1CCC[C@H](c2cccc(O)c2)C1 | 1.08 | 0.61
9 | CCCCN1CCC[C@@H](c2cccc(O)c2)C1 | 0.56 | 1.51
10 | CC(C)N1CCC[C@@H](c2cccc(O)c2)C1 | 0.45 | 0.68
11 | CN1CCC[C@H](c2cccc(O)c2)C1 | 0.61 | 0.43
